Test results published in patent US12325676B2, “Cationic lipid compound and composition for delivery of nucleic acids and use thereof” (Shenzhen Rhegen Biotechnology Co., Ltd., priority 2022, dated 2025).

How the values were obtained:
[1] = Particle size, PDI and zeta potential of mRNA-loaded lipid nanoparticles (Malvern Zetasizer nano); assay type: physicochemical
Description: (§1) Luciferase mRNA was diluted in 10-100 mM citrate buffer at pH 4.0; the lipid components (cationic lipids shown in the present disclosure: DSPC:cholesterol:PEG lipids (DMG-PEG2000)) were dissolved in ethanol at a molar ratio of 50:10:38.5:1.5.
(§2) 3 mL of a mRNA buffer and 1 mL of a lipid solution were loaded into two 5 mL syringes respectively, and the syringes were installed on a microfluidic syringe pump. Chips were connected to the syringes and syringe pump flow rate was set. Clicking the start button of the syringe pump caused injection into the chip at a flow rate ratio of 3:1. Under observation of the color of the product at the exit of the chip, after discarding the first 5 milky white droplets (about 100 μL), the back-end sample was collected into an EP tube. The collected product was placed in a dialysis bag and dialyzed for 6 h (MWCO: 100 KDa) in 10 mM PBS (pH 7.4) intervals. Subsequently, after being concentrated by ultrafiltration to the desired concentration, the lipid nanoparticles were filtered through a 0.22 μm sterile filter and then stored at 4° C.
(§3) Tests were performed to calculate the encapsulation rate of the products according to the instructions of Ribogreen kit. Particle size and polydispersity index (PDI) detection as well as zeta potential analysis was performed on a Malvern Zetasizer nano instrument using standard assays.

[2] = Encapsulation rate of mRNA-loaded lipid nanoparticles (Ribogreen kit); assay type: physicochemical
Description: as §1, §2, §3

[3] = as above; assay type: physicochemical; details: Table 4 batch; EPO mRNA LNP prepared as Example 20
[4] = test system: BALB/c mice; assay: In vivo expression of luciferase mRNA delivered by LNP, tail intravenous injection, small animal imaging; details: Table 3, 5 μg mRNA, female BALB/c mice, DLin-MC3-DMA = 100
Description: LUC-mRNA-lipid nanoparticles containing 5 μg mRNA (see SEQ ID NO: 1 in the Patent Application Publication CN114380724A for the corresponding nucleotide sequence of LUC-mRNA) were injected via tail intravenous injection in 6-8 week old female BALB/c mice, prepared as in Example 19. 100 μg of D-Luciferin Potassium Salt was injected via tail intravenous injection into the mice at specific time points and assayed using the PerkinElmer Small Animal Imaging System. Fluc is commonly used in mammalian cell cultures to measure gene expression and cell viability, and it emits biological fluorescent light in the presence of the substrate […]. The basic characteristics of the mRNA used include ARCA cap structure, polyA tail length of 120 nt, and complete substitution of pseudouridine.
The effect of delivering luciferase mRNA using more cationic lipids were validated according to the methods of Example 20 and Example 21.

[5] = test system: BALB/c mice; assay: In vivo EPO protein expression after tail i.v. injection of EPO-mRNA LNP, serum ELISA; details: 6 hours after tail i.v. injection of 20 μg EPO-mRNA-lipid nanoparticles, female Balb/c mice
Description: In the example, the effects of in vivo transfection of erythropoietin (EPO) by various cationic liposomes were compared. Nanoparticles were prepared in the same manner as in Example 20, and the nucleotide sequence corresponding to the EPO mRNA used is given in CN114380724B, SEQ ID NO:2. After preparation, 20 μg of EPO-mRNA-lipid nanoparticles were injected via tail intravenous injection in 6-8 week female Balb/c mice. 6 hours later the mice were subjected to blood sampling from the eye frame. After centrifugation to separate the serum, EPO protein expression was determined using ELISA. The basic characteristics of the mRNA used include ARCA cap structure, polyA tail length of 100-120 nt, and complete substitution of pseudouridine.

[6] = Particle size, PDI and zeta potential of mRNA-loaded lipid nanoparticles (Malvern Zetasizer nano); assay type: physicochemical; details: Table 4 batch; EPO mRNA LNP prepared as Example 20
[7] = test system: C57BL6 mice; assay: Intratumoral injection of luciferase mRNA LNP, fluorescence of tumor and liver; assay type: in vivo; details: luciferase mRNA LNP 25 μL/2.5 μg intratumoral, B 16F 10 tumor in C57BL6 mice, imaging after 24 h (FIGS. 6 and 7)
Description: Different types of lipid nanoparticles encapsulating luciferase mRNA in were prepared accordance with the preparation of Example 20. Tumors were injected subcutaneously in the right abdomen of 6-8 week female C57BL6 mice at 5×10^5 B 16F 10 cells (from CAS Cell Bank, CSTR:19375.09.3101MOUTCM36)/mouse, and tumor growth was observed and recorded periodically. On the 8th day after tumor inoculation, the length (L, mm) and width (D, mm) of the tumors were measured by using a vernier caliper, and the tumor volume (V) was calculated according to the formula V=(L×D^2)/2. Mice with tumor volume in the range of 80-120 mm^3 were taken and randomly grouped, and intratumorally injected with different types of lipid nanoparticles encapsulating luciferase mRNA at the volume of 25 μL/2.5 μg. Anatomical imaging was performed after 24 h to detect the fluorescence intensity of the mouse liver and tumor (as shown in FIGS. 6 and 7). […] This indicates better in situ tumor expression and lower liver […], which is suitable for encapsulation and delivery of some tumor therapy-related nucleic acid drugs.

[8] = Table 1, Luciferase mRNA LNP, cationic lipid:DSPC:cholesterol:DMG-PEG2000 50:10:38.5:1.5 molar
[9] = Table 3 batch, luciferase mRNA LNP prepared as Example 20

CCCCCCCCCCOCC(C)C(=O)OCCCCCN(CCO)CCCCCCCC(=O)OC(CCCCCCCC)CCCCCCCC (stereo not drawn) [Compound 2]
PDI [1, 8]: 0.12 | Particle size (nm) [1, 8]: 97.3 nm | Zeta potential (mV) [1, 8]: 0.49 mV | Encapsulation rate (%) [2, 8]: 87.8%

CCCCCCCCCCOCC(CC)C(=O)OCCCCCN(CCO)CCCCCCCC(=O)OC(CCCCCCCC)CCCCCCCC (stereo not drawn) [Compound 3]
PDI [1, 8]: 0.10 | Particle size (nm) [1, 8]: 113.9 nm | Zeta potential (mV) [1, 8]: 1.95 mV | Encapsulation rate (%) [2, 8]: 87.5%

CCCCCCCCCCOCC(CCC)C(=O)OCCCCCN(CCO)CCCCCCCC(=O)OC(CCCCCCCC)CCCCCCCC (stereo not drawn) [Compound 4]
PDI [1, 8]: 0.21 | Particle size (nm) [1, 8]: 94.4 nm | Zeta potential (mV) [1, 8]: 0.39 mV | Encapsulation rate (%) [2, 8]: 83.7%

CCCCCCCCOCC(CCCC)C(=O)OCCCCCN(CCO)CCCCCCCC(=O)OC(CCCCCCCC)CCCCCCCC (stereo not drawn) [Compound 6]
PDI [1, 8]: 0.17 | Particle size (nm) [1, 8]: 95.6 nm | Zeta potential (mV) [1, 8]: 0.79 mV | Encapsulation rate (%) [2, 8]: 63.9%

CCCCCCCCC(CCCCCCCC)OC(=O)CCCCCCCN(CCO)CCCCCCC(=O)OCCOCCCCCCC [Compound 14]
PDI [1, 8]: 0.22 | Particle size (nm) [1, 8]: 119.0 nm | Zeta potential (mV) [1, 8]: −3.27 mV | Encapsulation rate (%) [2, 8]: 95.7%

CCCCCCCCOCC(C)C(=O)OCCCCCN(CCO)CCCCCCCOC(=O)C(CCCCCCCC)CCCCCCCC (stereo not drawn) [Compound 16]
Encapsulation rate (%) [3]: 96.5% | relative fluorescence intensity (%) [4]: 574 ± 102% | PDI [1, 9]: 0.20 | Particle size (nm) [1, 9]: 90.9 nm | EPO concentration [5]: 3.01e+07 pg/mL | Encapsulation rate (%) [2, 9]: 95.6% | PDI [6]: 0.12 | Particle size (nm) [6]: 75.4 nm

CCCCCCCCC(CCCCCCCC)C(=O)OCCCCCCCN(CCO)CCCCCCCOC(=O)C(C)COCCCCCC (stereo not drawn) [Compound 17]
Encapsulation rate (%) [3]: 96.9% | relative fluorescence intensity (%) [4]: 686 ± 45% | PDI [1, 8]: 0.10 | Particle size (nm) [1, 8]: 90.9 nm | Zeta potential (mV) [1, 8]: −0.15 mV | PDI [1, 9]: 0.11 | Particle size (nm) [1, 9]: 68.2 nm | EPO concentration [5]: 3.25e+07 pg/mL | Encapsulation rate (%) [2, 8]: 92.5% | Encapsulation rate (%) [2, 9]: 97.6% | PDI [6]: 0.09 | Particle size (nm) [6]: 74.0 nm

CCCCCCCCC(CCCCCCCC)OC(=O)CCCCCCCN(CCO)CCCCCCCOC(=O)C(C)COCCCCCC (stereo not drawn) [Compound 23]
Encapsulation rate (%) [3]: 96.5% | relative fluorescence intensity (%) [4]: 764 ± 39% | PDI [1, 9]: 0.10 | Particle size (nm) [1, 9]: 75.4 nm | EPO concentration [5]: 4.11e+07 pg/mL | Encapsulation rate (%) [2, 9]: 97.0% | PDI [6]: 0.11 | Particle size (nm) [6]: 81.7 nm

CCCCCCCCOCC(C)C(=O)OCCCCCN(CCCCCCCC(=O)OC(CCCCCCCC)CCCCCCCC)CCN(CC)CC (stereo not drawn) [Compound 28]
PDI [1, 8]: 0.04 | Particle size (nm) [1, 8]: 127.6 nm | Zeta potential (mV) [1, 8]: 5.29 mV | Encapsulation rate (%) [2, 8]: 95.9%

CCCCCCCCCCSCCC(=O)OCCCCCN(CCO)CCCCCCCC(=O)OC(CCCCCCCC)CCCCCCCC [Compound 29]
PDI [1, 8]: 0.03 | Particle size (nm) [1, 8]: 105.5 nm | Zeta potential (mV) [1, 8]: −1.31 mV | Encapsulation rate (%) [2, 8]: 95.6%

CCCCCCCCCCSCC(C)C(=O)OCCCCCN(CCO)CCCCCCCC(=O)OC(CCCCCCCC)CCCCCCCC (stereo not drawn) [Compound 30]
PDI [1, 8]: 0.11 | Particle size (nm) [1, 8]: 121.2 nm | Zeta potential (mV) [1, 8]: −0.26 mV | Encapsulation rate (%) [2, 8]: 95.7%

CCCCCCCCSCC(CC)C(=O)OCCCCCN(CCO)CCCCCCCC(=O)OC(CCCCCCCC)CCCCCCCC (stereo not drawn) [Compound 36]
PDI [1, 8]: 0.11 | Particle size (nm) [1, 8]: 98.4 nm | Zeta potential (mV) [1, 8]: 0.55 mV | Encapsulation rate (%) [2, 8]: 93.9%

CCCCCCCCCCSCCOC(=O)CCCCCCCN(CCO)CCCCCCCC(=O)OC(CCCCCCCC)CCCCCCCC [Compound 41]
PDI [1, 8]: 0.17 | Particle size (nm) [1, 8]: 123.4 nm | Zeta potential (mV) [1, 8]: −7.02 mV | Encapsulation rate (%) [2, 8]: 94.9%

CCCCCCCCSCC(C)C(=O)OCCCCCN(CCO)CCCCCCCOC(=O)C(CCCCCCCC)CCCCCCCC (stereo not drawn) [Compound 44]
Encapsulation rate (%) [3]: 95.5% | relative fluorescence intensity (%) [4]: 843 ± 52% | PDI [1, 8]: 0.21 | Particle size (nm) [1, 8]: 104.1 nm | Zeta potential (mV) [1, 8]: −2.82 mV | PDI [1, 9]: 0.10 | Particle size (nm) [1, 9]: 71.1 nm | EPO concentration [5]: 4.89e+07 pg/mL | Encapsulation rate (%) [2, 8]: 96.4% | Encapsulation rate (%) [2, 9]: 97.1% | PDI [6]: 0.17 | Particle size (nm) [6]: 82.5 nm

CCCCCCCCC(CCCCCCCC)C(=O)OCCCCCCCN(CCO)CCCCCCCOC(=O)C(C)CSCCCCCC (stereo not drawn) [Compound 45]
Encapsulation rate (%) [3]: 93.9% | relative fluorescence intensity (%) [4]: 559 ± 33% | PDI [1, 9]: 0.15 | Particle size (nm) [1, 9]: 80.9 nm | EPO concentration [5]: 3.46e+07 pg/mL | Encapsulation rate (%) [2, 9]: 96.8% | PDI [6]: 0.15 | Particle size (nm) [6]: 81.0 nm

CCCCCCCCSC(CCCCCC)C(=O)OCCCCCCN(CCO)CCCCCCOC(=O)C(CCCCCC)CCCCCCCC (stereo not drawn) [Compound 46]
PDI [1, 8]: 0.11 | Particle size (nm) [1, 8]: 101.3 nm | Zeta potential (mV) [1, 8]: −4.12 mV | Encapsulation rate (%) [2, 8]: 95.6%

CCCCCCCCSCC(C)C(=O)OCCCCCN(CCCO)CCCCCCCC(=O)OC(CCCCCCCC)CCCCCCCC (stereo not drawn) [Compound 48]
PDI [1, 8]: 0.10 | Particle size (nm) [1, 8]: 94.2 nm | Zeta potential (mV) [1, 8]: −0.14 mV | Encapsulation rate (%) [2, 8]: 92.5%

CCCCCCCCC(CCCCCCCC)OC(=O)CCCCCCCN(CCO)CCCCCCCOC(=O)C(C)CSCCCCCC (stereo not drawn) [Compound 51]
Encapsulation rate (%) [3]: 95.0% | relative fluorescence intensity (%) [4]: 734 ± 51% | brightness (fluorescence intensity) at the tumor [7]: higher brightness at the tumor | brightness (fluorescence intensity) in the liver [7]: lower brightness in the liver | PDI [1, 9]: 0.11 | Particle size (nm) [1, 9]: 91.0 nm | EPO concentration [5]: 6.68e+07 pg/mL | Encapsulation rate (%) [2, 9]: 98.0% | PDI [6]: 0.14 | Particle size (nm) [6]: 75.3 nm

CCCCCCCCSCCOC(=O)CCCCCCCN(CCCCCCCC(=O)OC(CCCCCCCC)CCCCCCCC)CCN(C)C [Compound 55]
PDI [1, 8]: 0.13 | Particle size (nm) [1, 8]: 102.3 nm | Zeta potential (mV) [1, 8]: 7.37 mV | Encapsulation rate (%) [2, 8]: 91.1%

CCCCCCCCCCSCCC(=O)OCCCCCN(CCCCCCCC(=O)OC(CCCCCCCC)CCCCCCCC)CCN(C)C [Compound 57]
PDI [1, 8]: 0.24 | Particle size (nm) [1, 8]: 122.8 nm | Zeta potential (mV) [1, 8]: 7.09 mV | Encapsulation rate (%) [2, 8]: 94.1%
